Results as given in PubChem BioAssay (NCI).
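Five concentrations, 48 hours, 96-well plates. The concentration for 50% growth inhibition is given as GI50. TGI: total growth inhibition.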

Columns and labels:
Assay in all cases: DTP human tumour cell line panel, 48 h
786-0 renal = system: 786-0 renal
A498 renal = system: A498 renal
A549 NSCLC = system: A549 NSCLC
ACHN renal = system: ACHN renal
BT-549 breast = system: BT-549 breast
CAKI-1 renal = system: CAKI-1 renal
CCRF-CEM leukemia = system: CCRF-CEM leukemia
COLO 205 colon = system: COLO 205 colon
DU-145 prostate = system: DU-145 prostate
EKVX NSCLC = system: EKVX NSCLC
HCC-2998 colon = system: HCC-2998 colon
HCT-116 colon = system: HCT-116 colon
HCT-15 colon = system: HCT-15 colon
HL-60(TB) leukemia = system: HL-60(TB) leukemia
HOP-62 NSCLC = system: HOP-62 NSCLC
HOP-92 NSCLC = system: HOP-92 NSCLC
HS 578T breast = system: HS 578T breast
HT29 colon = system: HT29 colon
IGROV1 ovarian = system: IGROV1 ovarian
K-562 leukemia = system: K-562 leukemia
KM12 colon = system: KM12 colon
LOX IMVI melanoma = system: LOX IMVI melanoma
M14 melanoma = system: M14 melanoma
MALME-3M melanoma = system: MALME-3M melanoma
MCF7 breast = system: MCF7 breast
MDA-MB-231 breast = system: MDA-MB-231 breast
MDA-MB-435 = system: MDA-MB-435
MOLT-4 leukemia = system: MOLT-4 leukemia
NCI-H226 lung = system: NCI-H226 lung
NCI-H23 lung = system: NCI-H23 lung
NCI-H460 lung = system: NCI-H460 lung
NCI-H522 lung = system: NCI-H522 lung
NCI/ADR-RES ovarian = system: NCI/ADR-RES ovarian
OVCAR-4 ovarian = system: OVCAR-4 ovarian
OVCAR-5 ovarian = system: OVCAR-5 ovarian
OVCAR-8 ovarian = system: OVCAR-8 ovarian
PC-3 prostate = system: PC-3 prostate
RPMI-8226 leukemia = system: RPMI-8226 leukemia
RXF 393 renal = system: RXF 393 renal
SF-268 CNS = system: SF-268 CNS
SF-295 CNS = system: SF-295 CNS
SF-539 CNS = system: SF-539 CNS
SK-MEL-2 melanoma = system: SK-MEL-2 melanoma
SK-MEL-28 melanoma = system: SK-MEL-28 melanoma
SK-MEL-5 melanoma = system: SK-MEL-5 melanoma
SK-OV-3 ovarian = system: SK-OV-3 ovarian
SN12C renal = system: SN12C renal
SNB-19 CNS = system: SNB-19 CNS
SNB-75 CNS = system: SNB-75 CNS
SW-620 colon = system: SW-620 colon
T-47D breast = system: T-47D breast
TK-10 renal = system: TK-10 renal
U251 CNS = system: U251 CNS
UACC-257 melanoma = system: UACC-257 melanoma
UACC-62 melanoma = system: UACC-62 melanoma
UO-31 renal = system: UO-31 renal

Molecule `C#CCOc1ccc(-c2csc(NC(=O)C=C)n2)cc1NS(=O)(=O)c1cccc2c(N(C)C)cccc12` has a GI50 (786-0 renal) of 909 nM, a TGI (786-0 renal) of 1940 nM and a GI50 (A498 renal) of 1710 nM. The TGI (A498 renal) was 6.83 µM, the GI50 (A549 NSCLC) was 2970 nM and the TGI (A549 NSCLC) was 13.2 µM. For the same molecule, the GI50 (ACHN renal) was 861 nM, the TGI (ACHN renal) was 1740 nM and the GI50 (BT-549 breast) was 810 nM. For the same molecule, the TGI (BT-549 breast) was 1520 nM, the GI50 (CAKI-1 renal) was 1380 nM and the TGI (CAKI-1 renal) was 5.81 µM. For the same molecule, the GI50 (CCRF-CEM leukemia) was 312 nM, the TGI (CCRF-CEM leukemia) was 2650 nM and the GI50 (COLO 205 colon) was 2190 nM. The TGI (COLO 205 colon) was 7.97 µM, the GI50 (DU-145 prostate) was 1540 nM and the TGI (DU-145 prostate) was 5.25 µM. The GI50 (EKVX NSCLC) was 7.92 µM, the TGI (EKVX NSCLC) was 22.6 µM and the GI50 (HCC-2998 colon) was 3 µM. The TGI (HCC-2998 colon) was 9.58 µM, the GI50 (HCT-116 colon) was 800 nM and the TGI (HCT-116 colon) was 1570 nM. The GI50 (HCT-15 colon) was 900 nM, the TGI (HCT-15 colon) was 2160 nM and the GI50 (HL-60(TB) leukemia) was 683 nM. The TGI (HL-60(TB) leukemia) was 2120 nM, the GI50 (HOP-62 NSCLC) was 1640 nM and the TGI (HOP-62 NSCLC) was 8.04 µM. For the same molecule, the GI50 (HOP-92 NSCLC) was 819 nM, the TGI (HOP-92 NSCLC) was 3.61 µM and the GI50 (HS 578T breast) was 1680 nM. For the same molecule, the TGI (HS 578T breast) was 22.3 µM, the GI50 (HT29 colon) was 838 nM and the TGI (HT29 colon) was 1670 nM. The GI50 (IGROV1 ovarian) was 1090 nM, the TGI (IGROV1 ovarian) was 2700 nM and the GI50 (K-562 leukemia) was 1200 nM. It also gave a TGI (K-562 leukemia) of 3.8 µM, a GI50 (KM12 colon) of 2210 nM and a TGI (KM12 colon) of 8.27 µM. For the same molecule, the GI50 (LOX IMVI melanoma) was 25.2 nM, the TGI (LOX IMVI melanoma) was 668 nM and the GI50 (M14 melanoma) was 1020 nM. The TGI (M14 melanoma) was 2580 nM, the GI50 (MALME-3M melanoma) was 1070 nM and the TGI (MALME-3M melanoma) was 3.46 µM. For the same molecule, the GI50 (MCF7 breast) was 1090 nM, the TGI (MCF7 breast) was 5.1 µM and the GI50 (MDA-MB-231 breast) was 1790 nM. The TGI (MDA-MB-231 breast) was 9.42 µM, the GI50 (MDA-MB-435) was 1310 nM and the TGI (MDA-MB-435) was 3.84 µM. It also gave a GI50 (MOLT-4 leukemia) of 1180 nM, a TGI (MOLT-4 leukemia) of 3.83 µM and a GI50 (NCI-H226 lung) of 1170 nM. The TGI (NCI-H226 lung) was 3.51 µM, the GI50 (NCI-H23 lung) was 1790 nM and the TGI (NCI-H23 lung) was 7.67 µM. For the same molecule, the GI50 (NCI-H460 lung) was 2110 nM, the TGI (NCI-H460 lung) was 8.52 µM and the GI50 (NCI-H522 lung) was 806 nM. The TGI (NCI-H522 lung) was 1630 nM, the GI50 (NCI/ADR-RES ovarian) was 1450 nM and the TGI (NCI/ADR-RES ovarian) was 50 µM. It also gave a GI50 (OVCAR-4 ovarian) of 3 µM, a TGI (OVCAR-4 ovarian) of 22.6 µM and a GI50 (OVCAR-5 ovarian) of 1470 nM. For the same molecule, the TGI (OVCAR-5 ovarian) was 6.18 µM, the GI50 (OVCAR-8 ovarian) was 930 nM and the TGI (OVCAR-8 ovarian) was 2020 nM. For the same molecule, the GI50 (PC-3 prostate) was 1900 nM, the TGI (PC-3 prostate) was 8.55 µM and the GI50 (RPMI-8226 leukemia) was 947 nM. It also gave a TGI (RPMI-8226 leukemia) of 2570 nM, a GI50 (RXF 393 renal) of 1120 nM and a TGI (RXF 393 renal) of 2070 nM. It also gave a GI50 (SF-268 CNS) of 2460 nM, a TGI (SF-268 CNS) of 11 µM and a GI50 (SF-295 CNS) of 3.81 µM. It also gave a TGI (SF-295 CNS) of 11.5 µM, a GI50 (SF-539 CNS) of 861 nM and a TGI (SF-539 CNS) of 1780 nM. For the same molecule, the GI50 (SK-MEL-2 melanoma) was 973 nM, the TGI (SK-MEL-2 melanoma) was 2190 nM and the GI50 (SK-MEL-28 melanoma) was 1250 nM. It also gave a TGI (SK-MEL-28 melanoma) of 3.61 µM, a GI50 (SK-MEL-5 melanoma) of 1680 nM and a TGI (SK-MEL-5 melanoma) of 6.28 µM. For the same molecule, the GI50 (SK-OV-3 ovarian) was 7.07 µM, the TGI (SK-OV-3 ovarian) was 15.7 µM and the GI50 (SN12C renal) was 1300 nM. It also gave a TGI (SN12C renal) of 5.02 µM, a GI50 (SNB-19 CNS) of 2250 nM and a TGI (SNB-19 CNS) of 12.1 µM. The GI50 (SNB-75 CNS) was 862 nM, the TGI (SNB-75 CNS) was 4.6 µM and the GI50 (SW-620 colon) was 848 nM. For the same molecule, the TGI (SW-620 colon) was 1750 nM, the GI50 (T-47D breast) was 1490 nM and the TGI (T-47D breast) was 6.95 µM. For the same molecule, the GI50 (TK-10 renal) was 934 nM, the TGI (TK-10 renal) was 2040 nM and the GI50 (U251 CNS) was 2400 nM. It also gave a TGI (U251 CNS) of 8.39 µM, a GI50 (UACC-257 melanoma) of 2460 nM and a TGI (UACC-257 melanoma) of 10 µM. It also gave a GI50 (UACC-62 melanoma) of 1180 nM, a TGI (UACC-62 melanoma) of 6.05 µM and a GI50 (UO-31 renal) of 727 nM. For the same molecule, the TGI (UO-31 renal) was 1430 nM.
